The source of these data is US10058619B2, “P97-polynucleotide conjugates” (biOasis Technologies, Inc., priority 2014, dated 2018).

The nature of data set [1]: Brain delivery of AF680-labeled test molecules after IV injection, 3D confocal microscopy of brain sections. The data set is classed as in vivo, Balb/c mice. The protocol: Test molecules were intravenously injected (via tail vein) in Balb/c mice and 1 hour later the animals were sacrificed as follows: Prior to euthanasia, mice were injected (i.v.) with tomato Lectin-Texas Red ([…]) for 10 min to stain the brain vasculature. Blood was cleared by intracardiac perfusion of 10 ml heparinized saline (1 ml/min). Brains were excised and frozen on dry ice and stored at −80° C. Brains were mounted in Tissue Tek and sectioned ([…], 3 sections/brain) with a cryostat at −2° C. Sections (n=3/brain) were mounted on Superfrost Plus microscope slides, fixed in cold Acetone/MeOH (1:1) for 10 min at RT, and then washed with PBS. Glass coverslips were mounted on sections using Prolong Gold antifade reagent with DAPI (Molecular probes, P36931). 3D confocal microscopy was performed (4 random fields per section were captured).
Signals for all the sections were calibrated with respect to the PBS control group in order to observe only minimal (but not completely null) AF680 fluorescent signal in those sections (see FIG. 4A).

Data set [2] relates to mouse model of middle cerebral artery occlusion (MCAO). Description: Infarct volume analysis (TTC staining) in mouse model of middle cerebral artery occlusion (MCAO). The settings on record: pretreated 3 times with 30 mg/kg IV, 1 hour MCAO, 24 hours post reperfusion. The data set is classed as in vivo, C57/Bl6 mice. The protocol: The NOX4 gene-targeted p97-siRNA conjugates from Example 1 were tested for their ability to provide neuroprotection in a mouse model of middle cerebral artery occlusion (MCAO) (see, e.g., Chang et al., J Vis Exp. 2761:2011; Althenhöfer et al., Cell. Mol. Life Sci. 69:2327-2343, 2012; and Kleinschnitz et al., PLoS Biol. 8(9):e1000479, 2010).
C57/Bl6 mice were pretreated 3 times (1 hour interval between each injection) with either PBS or 30 mg/kg of siRNA alone or p97-siRNA via intravenous (IV) injection. Animals were subjected to stroke via MCAO about 1 hour following the last injection, as follows. The external and internal carotid arteries (ECA and ICA, respectively) were dissected and isolated and the common carotid artery (CCA) ligated. An […] 8-0 nylon thread coated in dental silicone was inserted into a small hole in the ECA towards the bifurcation of the CCA. […]
When the TTC staining was completed, infarct size was measured by a colorimetric staining method. […]
Absorbance was measured at 485 nm in a spectrophotometer and the values were averaged. Percentage loss in brain TIC staining in the ischemic side of the brain was compared with the contralateral side of the brain of the same animal using the following equation: % loss=100×(1−absorbance of ischemic hemisphere/absorbance of contralateral hemisphere)

“siRNA^AF680: negative control: unconjugated NOX4 antisense strand annealed to the AF680-labeled sense strand (antisense AUGUUCACAAAGUCAGGUCTT; sense GACCUGACUUUGUGAACAUTT; sense strand linked to Alexa Fluor 680 via linker, end not given here, further chemistry not given here)”: in data set [1] (10.0 mg/kg IV via tail vein, 1 h, Balb/c mice, brain sections), the “AF680 signal in the vasculature” value is “no AF680 signal was observed”. For the same substance, the “perinuclear AF680 signal in the brain parenchyma” value in data set [1] (10.0 mg/kg IV via tail vein, 1 h, Balb/c mice, signals calibrated to PBS control) is “not detected”. Besides, the “AF680 (red) staining in brain tissues (immunofluorescence imaging, FIGS. 4A-4D)” value in data set [1] (mice, following intravenous administration) is recorded as “no AF680 (red) staining”. The “infarct areas / infarct volume in the brain” value in data set [2] is “large infarct areas”.
